This is an account of results in US20250290915A1, “METHOD FOR PREDICTING RESPONSIVENESS TO THERAPY” (CANCERTAIN LIMITED, priority 2022, published 2025).

Assay [1] has as its system Circulating Tumour Cells (CTCs) from a patient with sex cord stromal tumour, ovarian tumour. Briefly: Drug response score assay on CTCs from blood, Example 4. It is filed as cell-based, human. On the set-up: key to Drug response score, conc. 1 / Drug response score, conc. 2 / Drug response score, conc. 3 / Drug response score, conc. 4: normalized drug response metric (Gupta et al. 2020). Conditions: for Drug response score, conc. 1: conc. 1: Cyclo 2.5 μg/ml, Vinc 10 ng/ml, Etop 1 μg/ml, Bini 100 ng/ml, Doxo 10 ng/ml; for Drug response score, conc. 1 / Drug response score, conc. 2 / Drug response score, conc. 3 / Drug response score, conc. 4: CTCs, t96h; for Drug response score, conc. 2: conc. 2: Cyclo 10 μg/ml, Vinc 20 ng/ml, Etop 4 μg/ml, Bini 200 ng/ml, Doxo 30 ng/ml; for Drug response score, conc. 3: conc. 3: Cyclo 40 μg/ml, Vinc 40 ng/ml, Etop 20 μg/ml, Bini 400 ng/ml, Doxo 90 ng/ml; for Drug response score, conc. 4: conc. 4: Cyclo 160 μg/ml, Vinc 80 ng/ml, Etop 100 μg/ml, Bini 800 ng/ml, Doxo 270 ng/ml; for effectiveness on Circulating Tumour Cells (CTCs) under laboratory conditions / Drug sensitivity as calculated by the assay (interpretation of Drug Response Scores): sex cord stromal / ovarian tumour CTCs; for Drug sensitivity as calculated by the assay (interpretation of Drug Response Scores): Table 14. The method, then:
(§1) CD45^+ cells and circulating tumour cells (CTCs) were isolated from a blood sample provided by each subject.
(§2) CD45 separation was performed by adding human CD45 microbeads (50 μl/ml blood), incubating for 15 minutes at 4° C. and then processing using an AutoMACS machine. This separates the blood sample into CD45^+ and CD45^−cells in 2 separate falcons. The falcon tubes are then centrifuged at 1200 rpm for 5 minutes.
(§3) The supernatant was removed from the CD45^−falcon tube, and the CD45^−cells contacted with 100 μl of FcR block and 100 μl of CD326 (EpCAM) MicroBeads, followed by incubation at […] 4° C. for 30 minutes. The CD45^−cells were then processed using an AutoMACS machine to separate the EpCAM positive and negative cells into 2 separate falcon tubes. The EpCAM-cells were discarded. The supernatant was removed from the EpCAM^+ cells, and the cells resuspended in DMEM with 2 μl Cell Tox, 2 μl MT and 2 μl MT. 20 μl of the resuspended pellet was then added to all sample wells excluding a blank. After all wells are added to, a cell count was conducted on the […] to determine the number of circulating tumour cells (CTCs).
(§4) The different cell types were each divided equally into populations, depending on the number of drugs/concentrations to be tested and plated on a cell-culture plate pre-coated with a scaffold of polycaprolactone (PCL) electrospun fibres and incubated at 37° C., 5% CO2, for 5 to (typically 10) minutes to facilitate cell attachment. After attachment, an initial imaging step was carried out using the RealTime-Glo™ MT assay from Promega (Catalogue No. G9711)) and the CellTox™ Green Cytotoxicity Assay (Promega, Catalogue No. G8741), carried out according to manufacturer's instructions. Following this initial imagining, the immunotherapeutic and/or chemotherapeutic agents were added to the cell populations as indicated below. After 10 minutes, the imagining step was repeated. The cell populations were then incubated at 37° C., 5% CO2 for 48 hours. The imaging step was then repeated. The cell populations were then re-dosed with the same immunotherapeutic and/or chemotherapeutic agents as indicated below, and incubated at 37° C., 5% CO2 for a further 48 hours. After this second 48 hour incubation, the imagining step was repeated for a final time.
(§5) At the end of this culture period, dose response scores were calculated using a normalized drug response metric as described in Gupta et al. (Communications Biology volume 3, Article number: 42 (2020), https://doi.org/10.1038/s42003-020-0765-z). The start readout for a given immunotherapeutic or chemotherapeutic agent at a given concentration was the to readout for said immunotherapeutic or chemotherapeutic agent at a specified concentration. The end readout for a given immunotherapeutic or chemotherapeutic agent at a given concentration was the final timepoint reading (t96h) for said immunotherapeutic or chemotherapeutic agent at a specified concentration.
(§6) The positive control start readout for a given drug/concentration was the to readout for the corresponding drug at a specified concentration. The positive control end readout for the corresponding drug at a specified concentration was the final timepoint reading (t96h) for the corresponding blank well.
(§7) The negative control start and end readouts for a given immunotherapeutic or chemotherapeutic agent at a given concentration were the to and final timepoint reading (t96h) respectively for blank cell or blank immuno cell well respectively.
The sensitivity or resistance of a subject's cancer to a given immunotherapeutic or chemotherapeutic agent was determined based on the calculated drug response score as shown in Table 2.
Blood samples from a patient with sex cord stromal tumour, ovarian tumour (epitheliod neoplasm, stage 3 recurrence after surgery (resection) and previous chemotherapy) were received on 19 Jul. 2021 and tested using a 5 drug panel. […]

Assay [2] has as its system Circulating Tumour Cells (CTCs) from a patient with lung cancer (adenocarcinoma). Briefly: Drug response score assay on CTCs (with CD45+ cells for immunotherapy) from blood, Example 5. The assay is classed as cell-based, human. Conditions: for Drug response score, conc. 1: conc. 1: Niv 20 μg/ml, Gm 2 μg/ml, Vin 20 μg/ml, Gf 100 ng/ml, E 0.75 μg/ml, Afa 20 ng/ml, Metho 0.5 μg/ml, Cz 200 ng/ml, Pal 40 ng/ml (CTCs); for Drug response score, conc. 1 / Drug response score, conc. 2: Pem 20 μg/ml (CTCs + CD45+ cells); for Drug response score, conc. 1 / Drug response score, conc. 2 / Drug response score, conc. 3 / Drug response score, conc. 4: t96h; for Drug response score, conc. 2: conc. 2: Niv 20 μg/ml, Gm 10 μg/ml, Vin 40 μg/ml, Gf 200 ng/ml, E 1.5 μg/ml, Afa 50 ng/ml, Metho 1 μg/ml, Cz 1000 ng/ml, Pal 80 ng/ml (CTCs); for Drug response score, conc. 3: conc. 3: Niv 80 μg/ml, Pem 100 μg/ml (CTCs + CD45+ cells), Gm 20 μg/ml, Vin 80 μg/ml, Gf 600 ng/ml, E 3 μg/ml, Afa 100 ng/ml, Metho 2 μg/ml, Cz 2000 ng/ml, Pal 160 ng/ml (CTCs); for Drug response score, conc. 4: conc. 4: Niv 160 μg/ml, Pem 160 μg/ml (CTCs + CD45+ cells), Gm 40 μg/ml, Vin 200 μg/ml, Gf 1200 ng/ml, E 6 μg/ml, Afa 150 ng/ml, Metho 4 μg/ml, Cz 4000 ng/ml, Pal 320 ng/ml (CTCs); for Drug sensitivity as calculated by the assay (interpretation of Drug Response Scores): Table 17. The method, then:
as §1, §2
The supernatant was removed from the CD45^+falcon tube, and the cells resuspended in DMEM with 2 μl Cell Tox, 2 μl MT and 2 μl MT. 20 μl of the resuspended CD45^+ cells was then plated in each well which will contain an immunotherapy treatment.
as §3, §4, §5, §6, §7
The sensitivity or resistance of a subject's cancer to a given immunotherapeutic or chemotherapeutic agent was determined based on the calculated drug response score as shown in Table 2. […]

Turning to `COc1cccc2c1C(=O)c1c(O)c3c(c(O)c1C2=O)C[C@@](O)(C(=O)CO)C[C@@H]3O[C@H]1C[C@H](N)[C@H](O)[C@H](C)O1` [Doxorubicin], in assay [1], the “Drug response score, conc. 1” value was found to be 0.68; the “Drug response score, conc. 2” value worked out at 0.93; the “Drug response score, conc. 3” value is 0.54; the “Drug response score, conc. 4” value is on record as 0.93. Besides, in assay [1], the “effectiveness on Circulating Tumour Cells (CTCs) under laboratory conditions” value (“effectiveness” below) is “show effectiveness” and the “Drug sensitivity as calculated by the assay (interpretation of Drug Response Scores)” value (shortened to “Drug sensitivity as calculated”) is listed as “Sensitive (S++)”.

Regarding `COc1cc([C@@H]2c3cc4c(cc3[C@@H](O[C@@H]3O[C@@H]5CO[C@@H](C)O[C@H]5[C@H](O)[C@H]3O)[C@H]3COC(=O)[C@H]23)OCO4)cc(OC)c1O` [Etoposide], in assay [1], the “Drug response score, conc. 1” value stood at 0.79; the “Drug response score, conc. 2” value was 1.06; the “Drug response score, conc. 3” value is on record as 1.19; the “Drug response score, conc. 4” value stood at 1.35. In assay [1], the “effectiveness” value was “not effective” and the “Drug sensitivity as calculated” value was “Resistant”.

Regarding Nivolumab, in assay [2], the “Drug response score, conc. 1” value is recorded as −0.45; the “Drug response score, conc. 2” value was −0.80; the “Drug response score, conc. 3” value is on record as −0.12; the “Drug response score, conc. 4” value is given as −0.22. Further, in assay [2] (lung cancer CTCs), the “effectiveness” value was “more effective than Pembrozulimab” and the “Drug sensitivity as calculated” value is on record as “S++”.

Turning to Pembrolizumab, in assay [2], the “Drug response score, conc. 1” value was −0.34; the “Drug response score, conc. 2” value is on record as −0.15; the “Drug response score, conc. 3” value came out at 0.05; the “Drug response score, conc. 4” value is given as 0.24. Besides, the “Drug sensitivity as calculated” value in assay [2] (lung cancer CTCs) was “S++”.
